Data as given in patent publication US11407719B2, “Anti-inflammatory agents” (Resverlogix Corp., priority 2009, dated 2022).

What was measured:
hIL-6 mRNA = test: Quantification of hIL-6 mRNA; assay type: cell-based, human; set-up: key: Active: an active compound is one that causes a ≥20% inhibition in IL-6 mRNA at a concentration less than or equal to 10 μM; conditions: IL-6 mRNA by real-time PCR; differentiated U937 cells, 1 h pretreatment, lipopolysaccharide stimulation 3 h; concentration ≤10 μM
Procedure, shortened: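 U937 cells, differentiated for 3 days, were pretreated with compound for 1 h and then stimulated with E. coli LPS for 3 h at 37 °C. IL-6 mRNA was quantified by one-step qRT-PCR, with Ct normalized to an internal control, and fold induction was expressed relative to control.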

VCAM-1 mRNA = test: Quantification of hVCAM mRNA; assay type: cell-based, human; set-up: key: Active: an active compound is one that causes a ≥20% inhibition in VCAM-1 mRNA at a concentration less than or equal to 10 μM; -1 mRNA at a concentration less than or equal to 10 μM; conditions: VCAM-1 mRNA by real-time PCR; HUVECs, 1 h pretreatment, tumor necrosis factor-α stimulation 24 h; concentration ≤10 μM
Description: In this example, […] in tissue culture cells was quantitated to measure the transcriptional inhibition of hVCAM when treated with a compound of the invention.
Human umbilical vein endothelial cells (HUVECs) were plated in a 96-well plate (4.0×10^3 cells/well) in 100 μL EGM media and incubated for 24 h prior to the addition of the compound of interest. The cells were pretreated for 1 h with the test compound prior to stimulation with tumor necrosis factor-α. The cells were incubated for an additional 24 h before the cells were harvested. At time of harvest, the spent media was removed from the HUVECs and rinsed in 200 μL PBS. Cell lysis solution (70 μL) was then added the cells in each well and incubated for ˜5-10 min at room temperature, to allow for complete cell lysis and detachment. mRNA was then prepared using the “mRNA Catcher PLUS plate” (Invitrogen), according to the protocol supplied. After the last wash, as much wash buffer as possible was aspirated without allowing the wells to dry. Elution buffer (E3, 70 μL) was then added to each well. mRNA was then eluted by incubating the mRNA Catcher PLUS plate with elution buffer for 5 min at 68° C. and then immediately placing the plate on ice.
The eluted mRNA so isolated was then used in a one-step quantitative real-time PCR reaction, using components of the Ultra Sense Kit together with Applied Biosystems primer-probe mixes. Real-time PCR data was analyzed, normalizing the Ct values for hVCAM to an internal control, prior to determining the fold induction of each unknown sample, relative to the control.

Compound	Inhibition of IL-6 expression (hIL-6 mRNA)	Inhibition of VCAM-1 expression (VCAM-1 mRNA)	melting point [°C]
COc1cccc2c(=O)[nH]c(-c3cc(C)c(OCCN4CCCC4)c(C)c3)nc12 [2-(3,5-Dimethyl-4-(2-(pyrrolidin-1-yl)ethoxy)phenyl)-8-methoxyquinazolin-4(3H)-one]	Active	Active	231 to 232
COc1cc(OC)c2c(=O)[nH]c(-c3cc(C)c(OCCN4CC(NC(C)=O)C4)c(C)c3)nc2c1 [N-(1-(2-(4-(5,7-Dimethoxy-4-oxo-3,4-dihydroquinazolin-2-yl)-2,6-dimethylphenoxy)ethyl)azetidin-3-yl)acetamide]	Active		111.8 to 113.6
COc1cc(OCCNC(C)=O)cc(-c2nc3cc(OC)cc(OC)c3c(=O)[nH]2)c1 [N-(2-(3-(5,7-dimethoxy-4-oxo-3,4-dihydroquinazolin-2-yl)-5-methoxyphenoxy)ethyl)acetamide]	Active	Active	264 to 265
COCCOc1cc(OC)c2c(=O)[nH]c(-c3ccc(N4C[C@@H](C)N(C(C)=O)[C@@H](C)C4)cc3)nc2c1 [2-(4-((3R,5S)-4-Acetyl-3,5-dimethylpiperazin-1-yl)phenyl)-5-methoxy-7-(2-methoxyethoxy)quinazolin-4(3H)-one]	Active		225 to 227
COc1ccc2c(=O)[nH]c(-c3cc(C)c(OCCN4CCCC4)c(C)c3)nc2c1 [2-(3,5-Dimethyl-4-(2-(pyrrolidin-1-yl)ethoxy)phenyl)-7-methoxyquinazolin-4(3H)-one]	Active	Active	218 to 220
COc1cc(OC)c2c(=O)[nH]c(-c3cc(C)c(OCCN4CCN(C)CC4)c(C)c3)nc2c1 [2-(3,5-Dimethyl-4-(2-(4-methylpiperazin-1-yl)ethoxy)phenyl)-5,7-dimethoxyquinazolin-4(3H)-one]	Active	Active	180 to 182
COc1cc(OC)c2c(=O)[nH]c(-c3cc(C)cc(OCCO)c3)nc2c1 [2-(3-(2-Hydroxyethoxy)-5-methylphenyl)-5,7-dimethoxyquinazolin-4(3H)-one]	Active	Active	106.9 to 109.1
COc1cc(OC)c2c(=O)[nH]c(-c3ccc(OCCN4CCCC4)cc3)nc2c1 [5,7-Dimethoxy-2-(4-(2-(pyrrolidin-1-yl)ethoxy)phenyl)quinazolin-4(3H)-one]	Active		226 to 227
COc1cc(OC)c2c(=O)[nH]c(-c3ccc(N4CCC(O)CC4)cc3)nc2n1 [2-(4-(4-Hydroxypiperidin-1-yl)phenyl)-5,7-dimethoxypyrido[2,3-d]pyrimidin-4(3H)-one]	Active		284 to 286
COc1cc(OC)c2c(=O)n(CCCN3CCCC3)c(-c3cc(C)c(OCCCN4CCCC4)c(C)c3)nc2c1 [2-(3,5-Dimethyl-4-(3-(pyrrolidin-1-yl)propoxy)phenyl)-5,7-dimethoxy-3-(3-(pyrrolidin-1-yl)propyl)quinazolin-4(3H)-one]	Active		109 to 111
COc1cc(OC)c2c(=O)[nH]c(-c3cc(C)nc(C)c3)nc2c1 [2-(2,6-Dimethylpyridin-4-yl)-5,7-dimethoxyquinazolin-4(3H)-one]	Active		291 to 292
COc1cc(OC)c2c(=O)[nH]c(-c3cc(C)c(OCCN4CCC4)c(C)c3)nc2c1 [2-(4-(2-(Azetidin-1-yl)ethoxy)-3,5-dimethylphenyl)-5,7-dimethoxyquinazolin-4(3H)-one]	Active		204 to 205
Cc1cc(-c2nc3cc(OC(C)C)cc(OC(C)C)c3c(=O)[nH]2)cc(C)c1OCCN1CCCC1 [2-(3,5-Dimethyl-4-(2-(pyrrolidin-1-yl)ethoxy)phenyl)-5,7-diisopropoxyquinazolin-4(3H)-one]	Active		65 to 68
COc1cc(OC)c2c(=O)[nH]c(-c3ccc(Cc4nnn[nH]4)cc3)nc2c1 [2-(4-((1H-Tetrazol-5-yl)methyl)phenyl)-5,7-dimethoxyquinazolin-4(3H)-one]	Active		295 to 296
Cc1cc(-c2nc3c(Cl)cccc3c(=O)[nH]2)cc(C)c1OCCN1CCCC1 [8-Chloro-2-(3,5-dimethyl-4-(2-(pyrrolidin-1-yl)ethoxy)phenyl)quinazolin-4(3H)-one]	Active		216 to 217
Cc1cc(C)c2c(=O)[nH]c(-c3cc(C)c(OCCN4CCCC4)c(C)c3)nc2c1 [2-(3,5-Dimethyl-4-(2-(pyrrolidin-1-yl)ethoxy)phenyl)-5,7-dimethylquinazolin-4(3H)-one]	Active		181 to 182
Cc1cc(-c2nc3ccc(CN4CCN(C)CC4)cc3c(=O)[nH]2)cc(C)n1 [2-(2,6-Dimethylpyridin-4-yl)-6-((4-methylpiperazin-1-yl)methyl)quinazolin-4(3H)-one]	Active		229 to 230
COc1cc(OC)c2c(=O)[nH]c(-c3ccc(N4CCN(CCO)CC4)cc3)nc2c1 [2-(4-(4-(2-hydroxyethyl)piperazin-1-yl)phenyl)-5,7-dimethoxyquinazolin-4(3H)-one]	Active	Active	
COc1cc(OC)c2c(=O)[nH]c(-c3ccc(N4CCC(NC(=O)c5ccccc5)CC4)cc3)nc2c1 [N-(1-(4-(5,7-Dimethoxy-4-oxo-3,4-dihydroquinazolin-2-yl)phenyl)piperidin-4-yl)benzamide]	Active	Active	
Cc1cc(-c2nc3ccccc3c(=O)[nH]2)cc(C)c1OCCN1CCOCC1 [2-(3,5-dimethyl-4-(2-morpholinoethoxy)phenyl)quinazolin-4(3H)-one]	Active	Active	
COCCOc1cc(OC)c2c(=O)[nH]c(-c3cc(C)nc(C)c3)nc2c1 [2-(2,6-Dimethylpyridin-4-yl)-5-methoxy-7-(2-methoxyethoxy)quinazolin-4(3H)-one]	Active		228.8 to 230.4
COc1cc(OC)c2c(=O)[nH]c(-c3cc(C)c(OCCN4CCOCC4)c(C)c3)nc2c1 [2-(3,5-dimethyl-4-(2-morpholinoethoxy)phenyl)-5,7-dimethoxyquinazolin-4(3H)-one]	Active	Active	
